Experimental data from ChEMBL document CHEMBL1158137, “Absolute configuration of sporotricale and structure of 6-hydroxysporotricale” (J Nat Prod, 2006).
The source made the active and inactive calls. No cut-off for these calls is given here.

Assays:
[1] = species: Gallus gallus; experiment: Antiangiogenic activity against bFGF-induced angiogenesis in chick embryo chorioallantoic membrane; assay type: functional, tissue-based
[2] = test system: BMEC; experiment: Cytotoxicity against bovine microvascular endothelial cells; assay type: cell-based, Bos taurus; conditions: cattle

| SMILES | Activity [1] | Activity [2] |
| --- | --- | --- |
| COc1cc(O)cc2c1C(=O)O[C@@H]2CCCCCCCCCC1(O)CC[C@@H](C)O1 (stereo partly specified) | Active | Non-toxic |
| COc1cc(O)cc2c1C(=O)O[C@@H]2CCCCC[C@@H]1CCC[C@]2(CC[C@@H](C)O2)O1 | Active | Non-toxic |
| COc1cc(O)c(O)c2c1C(=O)O[C@@H]2CCCCCCCCCC1(O)CC[C@@H](C)O1 (stereo partly specified) | Active | Non-toxic |
